Laboratory results reported in ChEMBL document CHEMBL3885861, “Open TG-GATES”.

Species on record: Rattus norvegicus
Assay: Open TG-GATES - Regimen: Daily Repeat
Assay type: toxicity, organism-based, Sprague-Dawley
Set-up: regimen Daily Repeat, gender Male, age 6 weeks
Details: in vivo, po, 50 mg/kg, route gavage, dose level High; for APTT / Bas / Eos / Fbg / Hb / Ht / Lym / MCH / MCHC / MCV / Mono / Neu / PT / Plat / RBC / Ret / WBC: tissue Blood; for KIDNEY_L / KIDNEY_R / KIDNEY_TOTAL: tissue Kidney; for LIVER: tissue Liver; for A/G / ALP / ALT / AST / BUN / CRE / Ca / Cl / DBIL / GLC / IP / K / LDH / Na / PL / RALB / TBIL / TC / TG / TP / gamma-GTP: tissue Plasma

CC1=C(CC(=O)O)c2cc(F)ccc2/C1=C\c1ccc([S+](C)[O-])cc1 (configuration not stated)
TERMINAL_BW (72 h, time 3 day): 223.6 g
APTT (72 h, time 3 day): 18.5 s
Bas (72 h, time 3 day): 0.2%
Eos (72 h, time 3 day): 1.2%
Fbg (72 h, time 3 day): 396.2 mg/dL
Hb (72 h, time 3 day): 13.9 g/dL
Ht (72 h, time 3 day): 41.6%
Lym (72 h, time 3 day): 71.2%
MCH (72 h, time 3 day): 20.7 pg
MCHC (72 h, time 3 day): 33.3%
MCV (72 h, time 3 day): 62.3 fL
Mono (72 h, time 3 day): 3.4%
Neu (72 h, time 3 day): 24%
PT (72 h, time 3 day): 13.3 s
Plat (72 h, time 3 day): 112.6 x10_4/uL
RBC (72 h, time 3 day): 668 x10_4/ul
Ret (72 h, time 3 day): 6%
WBC (72 h, time 3 day): 137.2 x10_2/uL
KIDNEY_L (72 h, time 3 day): 1 g
KIDNEY_R (72 h, time 3 day): 1 g
KIDNEY_TOTAL (72 h, time 3 day): 2 g
LIVER (72 h, time 3 day): 11 g
A/G (72 h, time 3 day): 0.9
ALP (72 h, time 3 day): 1504.6 IU/L
ALT (72 h, time 3 day): 38.2 IU/L
AST (72 h, time 3 day): 63 IU/L
BUN (72 h, time 3 day): 15.6 mg/dL
CRE (72 h, time 3 day): 0.2 mg/dL
Ca (72 h, time 3 day): 11 mg/dL
Cl (72 h, time 3 day): 106.8 meq/L
DBIL (72 h, time 3 day): 0.008 mg/dL
GLC (72 h, time 3 day): 178.4 mg/dL
IP (72 h, time 3 day): 6.5 mg/dL
K (72 h, time 3 day): 4.2 meq/L
LDH (72 h, time 3 day): 96.4 IU/L
Na (72 h, time 3 day): 141.8 meq/L
PL (72 h, time 3 day): 164.4 mg/dL
RALB (72 h, time 3 day): 2.6 g/dL
TBIL (72 h, time 3 day): 0.016 mg/dL
TC (72 h, time 3 day): 91.2 mg/dL
TG (72 h, time 3 day): 129.8 mg/dL
TP (72 h, time 3 day): 5.4 g/dL
gamma-GTP (72 h, time 3 day): 1.2 IU/L
TERMINAL_BW ([…], time 7 day): 211.2 g
TERMINAL_BW ([…], time 14 day): 263.8 g
TERMINAL_BW ([…], time 28 day): 295.9 g
APTT ([…], time 7 day): 16.7 s
Bas ([…], time 7 day): 0.6%
Eos ([…], time 7 day): 1.2%
Fbg ([…], time 7 day): 522.6 mg/dL
Hb ([…], time 7 day): 11.5 g/dL
Ht ([…], time 7 day): 35.1%
Lym ([…], time 7 day): 55%
MCH ([…], time 7 day): 20.8 pg
MCHC ([…], time 7 day): 32.8%
MCV ([…], time 7 day): 63.4 fL
Mono ([…], time 7 day): 3.8%
Neu ([…], time 7 day): 38.8%
PT ([…], time 7 day): 13 s
Plat ([…], time 7 day): 252.7 x10_4/uL
RBC ([…], time 7 day): 553.6 x10_4/ul
Ret ([…], time 7 day): 11.8%
WBC ([…], time 7 day): 207.1 x10_2/uL
APTT ([…], time 14 day): 25.1 s
Bas ([…], time 14 day): 0%
Eos ([…], time 14 day): 1.7%
Fbg ([…], time 14 day): 447 mg/dL
Hb ([…], time 14 day): 10.8 g/dL
Ht ([…], time 14 day): 33.6%
Lym ([…], time 14 day): 56%
MCH ([…], time 14 day): 20.6 pg
MCHC ([…], time 14 day): 31.6%
MCV ([…], time 14 day): 65.2 fL
Mono ([…], time 14 day): 4%
Neu ([…], time 14 day): 37%
PT ([…], time 14 day): 13.3 s
Plat ([…], time 14 day): 243.4 x10_4/uL
RBC ([…], time 14 day): 517.7 x10_4/ul
Ret ([…], time 14 day): 16.3%
WBC ([…], time 14 day): 216.8 x10_2/uL
APTT ([…], time 28 day): 18.9 s
Bas ([…], time 28 day): 0%
Eos ([…], time 28 day): 1.7%
Fbg ([…], time 28 day): 577 mg/dL
Hb ([…], time 28 day): 10.2 g/dL
Ht ([…], time 28 day): 34.4%
Lym ([…], time 28 day): 51.7%
MCH ([…], time 28 day): 18.1 pg
MCHC ([…], time 28 day): 29.3%
MCV ([…], time 28 day): 61.7 fL
Mono ([…], time 28 day): 4.7%
Neu ([…], time 28 day): 41%
PT ([…], time 28 day): 11.9 s
Plat ([…], time 28 day): 221.3 x10_4/uL
RBC ([…], time 28 day): 561.3 x10_4/ul
Ret ([…], time 28 day): 16.6%
WBC ([…], time 28 day): 217.4 x10_2/uL
KIDNEY_L ([…], time 7 day): 1 g
KIDNEY_R ([…], time 7 day): 1 g
KIDNEY_TOTAL ([…], time 7 day): 2 g
KIDNEY_L ([…], time 14 day): 1.1 g
KIDNEY_R ([…], time 14 day): 1.1 g
KIDNEY_TOTAL ([…], time 14 day): 2.2 g
KIDNEY_L ([…], time 28 day): 1.3 g
KIDNEY_R ([…], time 28 day): 1.2 g
KIDNEY_TOTAL ([…], time 28 day): 2.5 g
LIVER ([…], time 7 day): 10.6 g
LIVER ([…], time 14 day): 13.4 g
LIVER ([…], time 28 day): 15.2 g
A/G ([…], time 7 day): 0.9
ALP ([…], time 7 day): 1360.6 IU/L
ALT ([…], time 7 day): 24.4 IU/L
AST ([…], time 7 day): 64 IU/L
BUN ([…], time 7 day): 39.8 mg/dL
CRE ([…], time 7 day): 0.3 mg/dL
Ca ([…], time 7 day): 10.6 mg/dL
Cl ([…], time 7 day): 104 meq/L
DBIL ([…], time 7 day): 0.032 mg/dL
GLC ([…], time 7 day): 154.2 mg/dL
IP ([…], time 7 day): 7.5 mg/dL
K ([…], time 7 day): 4.3 meq/L
LDH ([…], time 7 day): 96.8 IU/L
Na ([…], time 7 day): 141 meq/L
PL ([…], time 7 day): 157.6 mg/dL
RALB ([…], time 7 day): 2.4 g/dL
TBIL ([…], time 7 day): 0.066 mg/dL
TC ([…], time 7 day): 78.8 mg/dL
TG ([…], time 7 day): 104.2 mg/dL
TP ([…], time 7 day): 5.1 g/dL
gamma-GTP ([…], time 7 day): 5 IU/L
A/G ([…], time 14 day): 0.9
ALP ([…], time 14 day): 806 IU/L
ALT ([…], time 14 day): 28.7 IU/L
AST ([…], time 14 day): 49.3 IU/L
BUN ([…], time 14 day): 18.3 mg/dL
CRE ([…], time 14 day): 0.3 mg/dL
Ca ([…], time 14 day): 10.5 mg/dL
Cl ([…], time 14 day): 106.3 meq/L
DBIL ([…], time 14 day): 0.0133 mg/dL
GLC ([…], time 14 day): 156.3 mg/dL
IP ([…], time 14 day): 5.3 mg/dL
K ([…], time 14 day): 4.5 meq/L
LDH ([…], time 14 day): 74 IU/L
Na ([…], time 14 day): 141.7 meq/L
PL ([…], time 14 day): 203 mg/dL
RALB ([…], time 14 day): 2.5 g/dL
TBIL ([…], time 14 day): 0.03 mg/dL
TC ([…], time 14 day): 96.7 mg/dL
TG ([…], time 14 day): 326.7 mg/dL
TP ([…], time 14 day): 5.4 g/dL
gamma-GTP ([…], time 14 day): 1.7 IU/L
A/G ([…], time 28 day): 0.8
ALP ([…], time 28 day): 657 IU/L
ALT ([…], time 28 day): 23.3 IU/L
AST ([…], time 28 day): 47.3 IU/L
BUN ([…], time 28 day): 18.3 mg/dL
CRE ([…], time 28 day): 0.3 mg/dL
Ca ([…], time 28 day): 10 mg/dL
Cl ([…], time 28 day): 103 meq/L
DBIL ([…], time 28 day): 0.0067 mg/dL
GLC ([…], time 28 day): 149.3 mg/dL
IP ([…], time 28 day): 7 mg/dL
K ([…], time 28 day): 3.8 meq/L
LDH ([…], time 28 day): 92 IU/L
Na ([…], time 28 day): 141.7 meq/L
PL ([…], time 28 day): 181.7 mg/dL
RALB ([…], time 28 day): 2.3 g/dL
TBIL ([…], time 28 day): 0.06 mg/dL
TC ([…], time 28 day): 88.7 mg/dL
TG ([…], time 28 day): 261.7 mg/dL
TP ([…], time 28 day): 5.1 g/dL
gamma-GTP ([…], time 28 day): 1.7 IU/L
